From patent publication US11911468B2, “Compositions and methods of treating sarcoma lung metastasis” (CASE WESTERN RESERVE UNIVERSITY, priority 2017, dated 2024)
Entries after “also recorded” stand apart in the source; their conditions may differ.

System: K7M2-luc2 pOS (VCAM-1/α4β1 interaction)
Test: Established pOS after K7M2-luc2 i.v., weekly intranasal blockade of VCAM-1/a4 from Day 7
Assay type: in vivo, Balb/c mice
Conditions: 50 μg i.n. weekly from Day 7
Protocol: FIGS. 9A-C illustrate targeting site-specific VCAM-1/a4 interaction blunted established pOS growth in vivo. (A) Balb/c mice were inoculated with 5×10^5 K7M2-luc2 i.v. on Day 0, and then treated with i.n. PBS, 50 μg iVCAM-1p, or 50 μg PS/2 (anti-a4) antibody weekly starting on Day 7. (A) representative images of mice up to 35 days. […] (C) 60% and 80% of pOS mice remained tumor free 1 month after weekly i.n. treatment with PS/2 antibody (filled circle) or iVCAM-1p (filled triangle), respectively. N=5-8 in each cohort.
To strengthen the crucial link between tVCAM-1 and α4β1 (FIGS. 5-8) and pOS survival, we performed pilot experiments to test whether direct functional blockade of VCAM-1/α4β1 interaction in the lung would result in the same pOS outcome as observed with MACs depletion. In collaboration with Nicole Steinmetz in CWRU School of Engineering, we treated mice (inoculated 7 days prior with a lethal dose of K7M2 i.v.) with weekly i.n. administration of 50 μg of a VCAM-1 inhibitory peptide (iVCAM-1p; amino acid sequence: VHPKQHR (SEQ ID NO: 1)). […] These pilot observations strengthen our hypothesis that pOS-MAC critically interact through the VCAM-1/α4 axis. […] As we administered mAb via i.n. route, much of the reported side effects of chronic systemic Natalizumab exposure (such as hepatic injury and progressive multifocal leukoencephalopathy) can potentially be limited by reducing the dose and targeting locally in the lung.

## VHPKQHR [iVCAM-1p]
  pOS tumor incidence: dramatic decreased
  tumor burden (relative BLI intensity, Day 7 BLI set as 1): dramatic decreased; also recorded: reduced tumor burden
1 month after treatment
  mice remaining tumor free: 80%
